Test results as given in PMC6773951 (Scientific Reports, 2019).

Target: T1, hPIRT (human PIRT, phosphoinositide interacting regulator of TRPs) (Homo sapiens, UniProt P0C851)
T1 construct: full-length, recombinant from E. coli, reconstituted in DPC micelles; two TM helices, C-terminal amphipathic helix Asp125-Arg137; maleimide dye labelled for MST
Experiment: microscale thermophoresis
Format: binding
Conditions: DPC micelles (0.1% DPC), 50 mM HEPES pH 7.5, 25 °C; fluorophore-labelled hPIRT 400 nM; no TRPM8-S1S4; diC8 chain stated for the NMR titration, MST lipid called PIP2 only

T1 sequence (P0C851 whole entry): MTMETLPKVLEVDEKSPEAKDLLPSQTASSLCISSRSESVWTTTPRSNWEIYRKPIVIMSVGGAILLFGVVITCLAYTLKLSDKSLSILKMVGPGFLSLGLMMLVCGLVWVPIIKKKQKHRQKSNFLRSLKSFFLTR

With CCCCCCCC(=O)OC[C@H](COP(=O)(O)O[C@@H]1[C@H](O)[C@H](O)[C@@H](OP(=O)(O)O)[C@H](OP(=O)(O)O)[C@H]1O)OC(=O)CCCCCCC [PIP2, 1,2-dioctanoyl-sn-glycero-3-phospho-(1′-myo-inositol-4′,5′-bisphosphate)] the Kd was 0.18 ± 0.06 mole%.
